Literature values in PMC11676896, “Protective Action of Cannabidiol on Tiamulin Toxicity in Humans—In Vitro Study” (International Journal of Molecular Sciences, 2024).

What was measured:
CYP1A1 = test system: CYP1A1; parameters: method as in PMID 26187180; conditions: cited from earlier work
[1] = parameters: method as in previous studies; conditions: CBD 1.56 and 3.125 µg/mL; ref previous studies; cited from earlier work

Q: Which “induction of CYP1A1 expression” value (CYP1A1) does the source give for `C=C(C)[C@@H]1CCC(C)=C[C@H]1c1c(O)cc(CCCCC)cc1O` [CBD, cannabidiol] here?
A: strongest inducer of CYP1A1 expression

Q: And the “cell viability with CBD alone” value [1]?
A: did not show a decrease in cell viability
